Source: patent US20260184663A1, “INDENE COMPOUNDS, PHARMACEUTICAL COMPOSITIONS THEREOF, AND THEIR THERAPEUTIC APPLICATIONS” (NucMito Pharmaceuticals co. Ltd., priority 2022, published 2026)

Columns and labels:
Format in all cases: cell-based
[1] = tested on: A549 (lung adenocarcinoma); test: Antiproliferative activity (CCK-8 cell viability), A549; conditions: Homo sapiens, 72 h, read-out: Antiproliferative activity in cancerous cells, A549 (inhibition of cell growth); for inhibition at 3.3 µM: Compound concentration: 3.3 μM; for inhibition at 10 µM: Compound concentration: 10 μM; for inhibition at 30 µM: Compound concentration: 30 μM
In short: (§1)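 Cells grown in DMEM (HepG2, SW480), MEM (HeLa) or F-12K (A549), each with 10% FBS, then exposed to compound at 3.3, 10 or 30 μM for 72 h at 37 °C. CCK-8 absorbance at 450 nm; viability expressed as percent of DMSO-treated cells, graded as growth inhibition bands.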

[2] = tested on: B16F10 (malignant melanoma); test: Antiproliferative activity (CCK-8 cell viability), B16F10; conditions: Mus musculus, 72 h, read-out: Antiproliferative activity in cancerous cells, B16F10 (inhibition of cell growth); for inhibition at 3.3 µM: B16-F10, Compound concentration: 3.3 μM; for inhibition at 10 µM: B16-F10, Compound concentration: 10 μM; for inhibition at 30 µM: B16-F10, Compound concentration: 30 μM
In short: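 B16F10 melanoma cells grown in DMEM with 10% FBS were plated in 96-well plates at 2,000-5,000 cells/well. After attachment they were exposed to compound in medium for 72 h at 37° C. CCK-8 solution (10 μL) was then added, and after 4 h at 37° C absorbance was read at 450 nm.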

HepG2 (liver cancer) = test: Antiproliferative activity (CCK-8 cell viability), HepG2; conditions: Homo sapiens, 72 h, read-out: Antiproliferative activity in cancerous cells, HepG2 (inhibition of cell growth); for inhibition at 3.3 µM: Compound concentration: 3.3 μM; for inhibition at 10 µM: Compound concentration: 10 μM; for inhibition at 30 µM: Compound concentration: 30 μM
In short: as §1

SW480 (colon cancer) = test: Antiproliferative activity (CCK-8 cell viability), SW480; conditions: Homo sapiens, 72 h, read-out: Antiproliferative activity in cancerous cells, SW480 (inhibition of cell growth); for inhibition at 3.3 µM: Compound concentration: 3.3 μM; for inhibition at 10 µM: Compound concentration: 10 μM; for inhibition at 30 µM: Compound concentration: 30 μM
In short: as §1

HeLa (cervical cancer) = test: Antiproliferative activity (CCK-8 cell viability), HeLa; conditions: Homo sapiens, 72 h, read-out: Antiproliferative activity in cancerous cells, HELA (inhibition of cell growth); for inhibition at 3.3 µM: Compound concentration: 3.3 μM; for inhibition at 10 µM: Compound concentration: 10 μM; for inhibition at 30 µM: Compound concentration: 30 μM
In short: as §1

[3] = tested on: A431 (epidermoid carcinoma); test: Antiproliferative activity (CCK-8 cell viability), A431; conditions: Homo sapiens, 72 h, read-out: Antiproliferative activity in cancerous cells, A431 (inhibition of cell growth); for inhibition at 3.3 µM: A-431, Compound concentration: 3.3 μM; for inhibition at 10 µM: A-431, Compound concentration: 10 μM; for inhibition at 30 µM: A-431, Compound concentration: 30 μM
In short: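 A431 epidermoid carcinoma cells grown in DMEM with 10% FBS were plated at 2,000-5,000 cells/well in 96-well plates. After attachment they were exposed to compound at 3.3 μM, 10 μM, or 30 μM for 72 h at 37° C. Viability was then assessed by CCK-8 against DMSO vehicle-treated wells.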

[4] = tested on: MDA-MB-231 (breast cancer); test: Antiproliferative activity (CCK-8 cell viability), MDA-MB-231; conditions: Homo sapiens, 72 h, read-out: Antiproliferative activity in cancerous cells, MDA-MB-231 (inhibition of cell growth); for inhibition at 3.3 µM: Compound concentration: 3.3 μM; for inhibition at 10 µM: Compound concentration: 10 μM; for inhibition at 30 µM: Compound concentration: 30 μM
In short: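 MDA-MB-231 breast cancer cells, grown in DMEM with 10% FBS, were plated in 96-well plates at 2,000-5,000 cells/well. Once attached, they were exposed to compound and incubated at 37° C. for 72 h. Viability was then measured with CCK-8 (10 μL per well, 4 h at 37° C.) by absorbance at 450 nm, relative to DMSO vehicle wells.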

CC1=C(CC(=O)O)c2cc(F)ccc2/C1=C\c1ccc(OC2CCN(C(=O)OC(C)(C)C)CC2)cc1 [C201, (Z)-2-(1-(4-((1-(Tert-butoxycarbonyl)piperidin-4-yl)oxy)benzylidene)-5-fluoro-2-methyl-1H-inden-3-yl)acetic acid]
≥ 50%: inhibition at 10 µM [1] | inhibition at 30 µM [1] | inhibition at 10 µM [2] | inhibition at 30 µM [2] | inhibition at 10 µM (HepG2 (liver cancer)) | inhibition at 30 µM (HepG2 (liver cancer)) | inhibition at 10 µM (SW480 (colon cancer)) | inhibition at 30 µM (SW480 (colon cancer)) | inhibition at 10 µM (HeLa (cervical cancer)) | inhibition at 30 µM (HeLa (cervical cancer)) | inhibition at 3.3 µM [3] | inhibition at 10 µM [3] | inhibition at 30 µM [3] | inhibition at 10 µM [4] | inhibition at 30 µM [4]
< 30%: inhibition at 3.3 µM [1] | inhibition at 3.3 µM [2] | inhibition at 3.3 µM (HepG2 (liver cancer)) | inhibition at 3.3 µM (SW480 (colon cancer)) | inhibition at 3.3 µM (HeLa (cervical cancer)) | inhibition at 3.3 µM [4]

CC1=C(CC(=O)O)c2cc(F)ccc2/C1=C\c1ccc(OC2CCNCC2)cc1 [C202, (Z)-2-(5-Fluoro-2-methyl-1-(4-(piperidin-4-yloxy)benzylidene)-1H-inden-3-yl)-acetic acid]
< 30%: inhibition at 3.3 µM [1] | inhibition at 10 µM [1] | inhibition at 3.3 µM [2] | inhibition at 10 µM [2] | inhibition at 3.3 µM (HepG2 (liver cancer)) | inhibition at 10 µM (HepG2 (liver cancer)) | inhibition at 3.3 µM (SW480 (colon cancer)) | inhibition at 10 µM (SW480 (colon cancer)) | inhibition at 30 µM (SW480 (colon cancer)) | inhibition at 3.3 µM (HeLa (cervical cancer)) | inhibition at 3.3 µM [4] | inhibition at 10 µM [4]
30 to 50%: inhibition at 30 µM [1] | inhibition at 10 µM (HeLa (cervical cancer))
≥ 50%: inhibition at 30 µM [2] | inhibition at 30 µM (HepG2 (liver cancer)) | inhibition at 30 µM (HeLa (cervical cancer)) | inhibition at 3.3 µM [3] | inhibition at 10 µM [3] | inhibition at 30 µM [3] | inhibition at 30 µM [4]

CC(=O)CC(=O)N1CCC(Oc2ccc(/C=C3/C(C)=C(CC(=O)O)c4cc(F)ccc43)cc2)CC1 [C203, (Z)-2-(5-Fluoro-2-methyl-1-(4-((1-(3-oxobutanoyl)piperidin-4-yl)oxy)-benzylidene)-1H-inden-3-yl)acetic acid]
≥ 50%: inhibition at 10 µM [2] | inhibition at 30 µM [2] | inhibition at 3.3 µM [3] | inhibition at 10 µM [3] | inhibition at 30 µM [3]
30 to 50%: inhibition at 3.3 µM [1]
< 30%: inhibition at 10 µM [1] | inhibition at 30 µM [1] | inhibition at 3.3 µM [2] | inhibition at 3.3 µM (HepG2 (liver cancer)) | inhibition at 10 µM (HepG2 (liver cancer)) | inhibition at 30 µM (HepG2 (liver cancer)) | inhibition at 3.3 µM (SW480 (colon cancer)) | inhibition at 10 µM (SW480 (colon cancer)) | inhibition at 30 µM (SW480 (colon cancer)) | inhibition at 3.3 µM (HeLa (cervical cancer)) | inhibition at 10 µM (HeLa (cervical cancer)) | inhibition at 30 µM (HeLa (cervical cancer)) | inhibition at 3.3 µM [4] | inhibition at 10 µM [4] | inhibition at 30 µM [4]

CC1=C(CC(=O)O)c2cc(F)ccc2/C1=C\c1ccc(OC2CCC(F)(F)CC2)cc1 [C205, (Z)-2-(1-(4-((4,4-Difluorocyclohexyl)oxy)benzylidene)-5-fluoro-2-methyl-1H-inden-3-yl)acetic acid]
< 30%: inhibition at 3.3 µM [1] | inhibition at 3.3 µM (HepG2 (liver cancer)) | inhibition at 3.3 µM (HeLa (cervical cancer)) | inhibition at 3.3 µM [3]
≥ 50%: inhibition at 10 µM [1] | inhibition at 30 µM [1] | inhibition at 3.3 µM [2] | inhibition at 10 µM [2] | inhibition at 30 µM [2] | inhibition at 30 µM (HepG2 (liver cancer)) | inhibition at 30 µM (SW480 (colon cancer)) | inhibition at 10 µM (HeLa (cervical cancer)) | inhibition at 30 µM (HeLa (cervical cancer)) | inhibition at 30 µM [3] | inhibition at 3.3 µM [4] | inhibition at 10 µM [4] | inhibition at 30 µM [4]
30 to 50%: inhibition at 10 µM (HepG2 (liver cancer)) | inhibition at 3.3 µM (SW480 (colon cancer)) | inhibition at 10 µM (SW480 (colon cancer)) | inhibition at 10 µM [3]

CC1=C(CC(=O)O)c2cc(F)ccc2/C1=C\c1cccc(OC2CCC(F)(F)CC2)c1 [C206, (Z)-2-(1-(3-((4,4-Difluorocyclohexyl)oxy)benzylidene)-5-fluoro-2-methyl-1H-inden-3-yl)acetic acid]
< 30%: inhibition at 3.3 µM [1] | inhibition at 3.3 µM (HepG2 (liver cancer)) | inhibition at 3.3 µM (HeLa (cervical cancer))
≥ 50%: inhibition at 10 µM [1] | inhibition at 30 µM [1] | inhibition at 3.3 µM [2] | inhibition at 10 µM [2] | inhibition at 30 µM [2] | inhibition at 10 µM (HepG2 (liver cancer)) | inhibition at 30 µM (HepG2 (liver cancer)) | inhibition at 10 µM (SW480 (colon cancer)) | inhibition at 30 µM (SW480 (colon cancer)) | inhibition at 10 µM (HeLa (cervical cancer)) | inhibition at 30 µM (HeLa (cervical cancer)) | inhibition at 30 µM [3] | inhibition at 3.3 µM [4] | inhibition at 10 µM [4] | inhibition at 30 µM [4]
30 to 50%: inhibition at 3.3 µM (SW480 (colon cancer)) | inhibition at 3.3 µM [3] | inhibition at 10 µM [3]

CC1=C(CC(=O)O)c2cc(F)ccc2/C1=C\c1cccc(C(F)(F)c2ccccc2)c1 [C301, (Z)-2-(1-(3-(Difluoro(phenyl)methyl)benzylidene)-5-fluoro-2-methyl-1H-inden-3-yl)acetic acid]
< 30%: inhibition at 3.3 µM [1] | inhibition at 10 µM [1] | inhibition at 3.3 µM (HepG2 (liver cancer)) | inhibition at 10 µM (HepG2 (liver cancer)) | inhibition at 3.3 µM (SW480 (colon cancer)) | inhibition at 10 µM (SW480 (colon cancer)) | inhibition at 3.3 µM (HeLa (cervical cancer)) | inhibition at 3.3 µM [3] | inhibition at 10 µM [3]
30 to 50%: inhibition at 3.3 µM [2]
≥ 50%: inhibition at 30 µM [1] | inhibition at 10 µM [2] | inhibition at 30 µM [2] | inhibition at 30 µM (HepG2 (liver cancer)) | inhibition at 30 µM (SW480 (colon cancer)) | inhibition at 10 µM (HeLa (cervical cancer)) | inhibition at 30 µM (HeLa (cervical cancer)) | inhibition at 30 µM [3] | inhibition at 3.3 µM [4] | inhibition at 10 µM [4] | inhibition at 30 µM [4]

CC1=C(CC(=O)O)c2cc(F)ccc2/C1=C\c1ccc(C(=O)c2cc3ccccc3s2)cc1 [C303, (Z)-2-(1-(4-(Benzo[b]thiophene-2-carbonyl)benzylidene)-5-fluoro-2-methyl-1H-inden-3-yl)acetic acid]
30 to 50%: inhibition at 3.3 µM [1] | inhibition at 3.3 µM (HepG2 (liver cancer)) | inhibition at 3.3 µM (SW480 (colon cancer)) | inhibition at 3.3 µM (HeLa (cervical cancer))
< 30%: inhibition at 3.3 µM [3]
≥ 50%: inhibition at 10 µM [1] | inhibition at 30 µM [1] | inhibition at 3.3 µM [2] | inhibition at 10 µM [2] | inhibition at 30 µM [2] | inhibition at 10 µM (HepG2 (liver cancer)) | inhibition at 30 µM (HepG2 (liver cancer)) | inhibition at 10 µM (SW480 (colon cancer)) | inhibition at 30 µM (SW480 (colon cancer)) | inhibition at 10 µM (HeLa (cervical cancer)) | inhibition at 30 µM (HeLa (cervical cancer)) | inhibition at 10 µM [3] | inhibition at 30 µM [3] | inhibition at 3.3 µM [4] | inhibition at 10 µM [4] | inhibition at 30 µM [4]
